Read-outs that look alike come from different tables or passages of the source.
Legend:
[1] = target: His-tagged KRAS G12D protein (Homo sapiens (Human), UniProt P01116, G12D); experiment: KRAS G12D TR-FRET Assay; assay type: binding
In short: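 His-tagged KRAS G12D (diluted to 20 nM in pH 7.4 HEPES buffer with 10 mM MgCl2 and 10 μM GDP) was preincubated with titrated compound for 30 min at room temperature. Biotinylated KRPep-2d peptide (diluted to 20 nM) was then added for 1 h, and displacement was monitored by TR-FRET.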

[2] = system: Phosphorylation of ERK1/2 in AsPC-1 cells; experiment: Phospho-ERK1/2 MSD Assay; assay type: cell-based, human
In short: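 Read-out: MSD electrochemiluminescent detection of phosphorylated ERK1/2 in whole-cell lysates, fitted to a 4-parameter logistic curve for IC50. Prior to lysis, AsPC-1 cells (25,000 per well) received a 2 h compound dose-response at 37 °C.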

[3] = target: GDP-bound KRAS protein (aa 1-169), containing both G12D and C118A amino acid substitutions (Homo sapiens (Human), UniProt P01116, C118A/G12D); experiment: KRAS G12D Coupled Nucleotide Exchange Assay; assay type: biochemical
AsPC-1 cells = experiment: AsPC-1 CTG Assay (CellTiter-Glo cell viability); assay type: cell-based, human; details: first value of the cell, read-out: G12D/C/V Cell Proliferation CTG (72 h) AsPC-1
Protocol: AsPC-1 and SW620 CTG Assay Protocols
AsPC-1 (human pancreatic adenocarcinoma; ATCC CRL-1682) or SW620 (human colon adenocarcinoma; ATCC CCL-227) cells were cultured in RPMI 1640 medium containing 10% fetal bovine serum and 1× penicillin/streptomycin/L-glutamine. Cells were seeded in 384-well plates at a density of 3.33E+04 cells/mL and incubated at 37° C., 5% CO2, overnight. Serially-diluted compound or DMSO was added to the cells, and plates were incubated at 37° C., 5% CO2 for 72 h. Cell viability was measured using a CellTiter-Glo® Luminescent Cell Viability Assay kit (Promega) according to the manufacturer's protocol. The luminescence signal of treated samples was normalized to DMSO control, and data were analyzed using a 4-parameter logistic model to calculate IC50 values.

[4] = read-out: KRAS G12D Binding IC50
[5] = Homo sapiens, ASPC1, 2 h, read-out: 2 h p-ERK (AsPC-1 cells), IC50
[6] = read-out: KRAS G12D Coupled Exchange IC50
[7] = Homo sapiens, ASPC1, 72 h, AsPC-1, 72 h
[8] = Homo sapiens, ASPC1, 2 h, read-out: 2 h p-ERK (AsPC-1 cells)
[9] = Homo sapiens, ASPC1, 72 h, AsPC-1 cells (G12D), 72 h

Compound `Cc1cc2[nH]ncc2c2c1/C=C\COC(=O)O[C@@H]1CCCN(C1)c1nc(OC[C@@]34CCCN3C[C@H](F)C4)nc3c(F)c-2ncc13` (single isomer, unassigned) [Example 123] has an IC50 [1, 4] of 8 nM, an IC50 [2, 5] of 104 nM and an IC50 [3, 6] of 4 nM. The IC50 (AsPC-1 cells; [7]) was 650 nM.
With “(15R)-22,31-Difluoro-8-(((2R,7aS)-2-fluorotetrahydro-1H-pyrrolo[1,2-a]pyrrol-7a(5H)-yl)methoxy)-27-hydroxy-15-methyl-16-oxa-3,7,9,11-tetraazahexacyclo[19.7.1.1˜2,6˜.1˜11,15˜0.0˜5,10˜.0˜25,29˜]hentriaconta-1(28),2(31),3,5,7,9,21,23,25(29),26-decaen-17-one bis(2,2,2-trifluoroacetate) [Example 43]” the IC50 [1, 4] was 4 nM, the IC50 ([2]; 2 h, read-out: 2 h p-ERK (AsPC-1 cells), IC50) was 13 nM and the IC50 [3, 6] was 2 nM. The IC50 (AsPC-1 cells; AsPC-1, 72 h) was 92 nM.
Work on `CN(C)CC1(COc2nc3c4cnc(c(F)c4n2)-c2c(c(Cl)cc4[nH]ncc24)CCCCOCC2(F)CCCCN3C2)CC1` (stereo in doubt) [Example 401, 1-(1-((((26S)-18-chloro-26,32-difluoro-24-oxa-1,3,5,9,14,15-hexaazahexacyclo[24.4.1.1~6,10~.0~2,7~.0~11,19~.0~12,16~]dotriaconta-2,4,6,8,10(32),11,13,16,18-nonaen-4-yl)oxy)methyl)cyclopropyl)-N,N-dimethylmethanamine] yielded an IC50 ([1]; TR-FRET, read-out: KRAS G12D Binding) of 5 nM, an IC50 [2, 8] of 289 nM and an IC50 ([3]; 2 hours compound pre-incubation, read-out: KRAS G12D Coupled Exchange) of 3 nM. The IC50 (AsPC-1 cells; [9]) was 386 nM.
Compound `O=C1OCCc2c(Cl)cc3[nH]ncc3c2-c2ncc3c(nc(OC[C@@]45CCCN4C[C@H](F)C5)nc3c2F)N2CCC[C@]3(C[C@@H](CO3)O1)C2` [Example 315, (1S,4S)-11-chloro-33-fluoro-25-(((2R,7aS)-2-fluorotetrahydro-1H-pyrrolo[1,2-a]pyrrol-7a(5H)-yl)methoxy)-2,5,7-trioxa-14,15,20,24,26,28-hexaazaheptacyclo[26.3.1.1~1,4~.1~19,23~.0~10,18~.0~13,17~.0~22,27~]tetratriaconta-10,12,15,17,19(33),20,22,24,26-nonaen-6-one] has an IC50 [2, 5] of 20.8 nM and an IC50 (AsPC-1 cells; [7]) of 23 nM.
In the case of `Fc1c2ncc3c(nc(OC[C@@]45CCCN4C[C@H](F)C5)nc13)N1CCC[C@H](C1)c1coc(n1)CCCc1c(Cl)cc3[nH]ncc3c1-2` [Example 157, (18R)-9-chloro-31-fluoro-25-(((2R,7aS)-2-fluorotetrahydro-1H-pyrrolo[1,2-a]pyrrol-7a(5H)-yl)methoxy)-15-oxa-5,6,22,24,26,30,33-heptaazaheptacyclo[25.3.1.1~14,17~.1~18,22~.0~2,10~.0~3,7~.0~23,28~]tritriaconta-1(31),2,4,7,9,14(33),16,23,25,27,29-undecaene], the IC50 [2, 5] is reported as 7 nM and the IC50 (AsPC-1 cells; [7]) is reported as 60 nM.
Work on `CC12COCCN(C1)c1nc(OC[C@@]34CCCN3C[C@H](F)C4)nc3cc(nnc13)-c1c(c(Cl)cc3[nH]ncc13)CCCOC(=O)O2` (stereo in doubt) [Example 362, (26R)-18-chloro-4-(((2R,7aS)-2-fluorotetrahydro-1H-pyrrolo[1,2-a]pyrrol-7a(5H)-yl)methoxy)-26-methyl-23,25,28-trioxa-1,3,5,8,9,14,15-heptaazahexacyclo[24.4.1.1~6,10~.0~2,7~.0~11,19~.0~12,16~]dotriaconta-2,4,6(32),7,9,11,13,16,18-nonaen-24-one] yielded an IC50 [2, 5] of 133 nM and an IC50 (AsPC-1 cells; [7]) of 1450 nM.
In the case of `O=C1CCCCc2c(Cl)cccc2-c2ncc3c(nc(OC[C@@]45CCCN4C[C@H](F)C5)nc3c2F)N2CC[C@H]3CCN1[C@H]3C2` [Example 162, (25S,29R)-15-chloro-30-fluoro-4-(((2R,7aS)-2-fluorotetrahydro-1H-pyrrolo[1,2-a]pyrrol-7a(5H)-yl)methoxy)-1,3,5,9,22-pentaazahexacyclo[20.5.2.1~6,10~.0~2,7~.0~11,16~.0~25,29~]triaconta-2,4,6,8,10(30),11,13,15-octaen-21-one], the IC50 [1, 4] is reported as 37 nM, the IC50 [2, 5] is reported as 1830 nM and the IC50 [3, 6] is reported as 20 nM.
`O=C1CCCCc2c(Cl)cc3[nH]ncc3c2-c2ncc3c(nc(OC[C@@]45CCCN4C[C@H](F)C5)nc3c2F)N2CC[C@@H]3CCN1[C@@H]3C2` [Example 61, (28R,32S)-18-chloro-33-fluoro-4-(((2R,7aS)-2-fluorotetrahydro-1H-pyrrolo[1,2-a]pyrrol-7a(5H)-yl)methoxy)-1,3,5,9,14,15,25-heptaazaheptacyclo[23.5.2.1~6,10~.0~2,7~.0~11,19~.0~12,16~.0~28,32~]tritriaconta-2,4,6,8,10(33),11,13,16,18-nonaen-24-one] gave an IC50 [1, 4] of 79 nM, an IC50 [2, 5] of 70 nM and an IC50 [3, 6] of 34 nM.
In the case of `Fc1c2ncc3c(nc(OC[C@@]45CCCN4C[C@H](F)C5)nc13)N1CCC[C@H](C1)Cn1cc(cn1)/C=C\c1c(Cl)cc3[nH]ncc3c1-2` [Example 147], the IC50 [1, 4] is reported as 16 nM, the IC50 [2, 5] is reported as 298 nM and the IC50 [3, 6] is reported as 13 nM.
`[2H]C([2H])([2H])[C@@]12COCCN(C1)c1nc(OC[C@@]34CCCN3C[C@H](F)C4)nc3c(F)c(ncc13)-c1c(c(C)cc3[nH]ncc13)CCCOC(=O)O2` [Example 352, (26S)-32-fluoro-4-(((2R,7aS)-2-fluorotetrahydro-1H-pyrrolo[1,2-a]pyrrol-7a(5H)-yl)methoxy)-18-methyl-26-(~2~H_3_)methyl-23,25,28-trioxa-1,3,5,9,14,15-hexaazahexacyclo[24.4.1.1~6,10~.0~2,7~.0~11,19~.0~12,16~]dotriaconta-2,4,6,8,10(32),11,13,16,18-nonaen-24-one] showed an IC50 [2, 5] of 8.2 nM, an IC50 [3, 6] of 2 nM and an IC50 (AsPC-1 cells; [7]) of 103 nM.
In the case of `Cc1cc2[nH]ncc2c2c1/C=C/COC(=O)O[C@@H]1CCCN(C1)c1nc(OC[C@@]34CCCN3C[C@H](F)C4)nc3c(F)c-2ncc13` [Example 101, (11E,17R)-30-fluoro-24-(((2R,7aS)-2-fluorotetrahydro-1H-pyrrolo[1,2-a]pyrrol-7a(5H)-yl)methoxy)-9-methyl-14,16-dioxa-5,6,21,23,25,29-hexaazahexacyclo[24.3.1.1~17,21~.0~2,10~.0~3,7~.0~22,27~]hentriaconta-1(30),2,4,7,9,11,22,24,26,28-decaen-15-one], the IC50 [1, 4] is reported as 93 nM, the IC50 [2, 5] is reported as 1340 nM and the IC50 [3, 6] is reported as 70 nM.
`Cc1cc2[nH]ncc2c2c1CCOC(=O)OC[C@@H]1CCN(C1)c1nc(OC[C@@]34CCCN3C[C@H](F)C4)nc3c(F)c-2ncc13` [Example 219] was tested, and the IC50 [1, 4] was 19 nM, the IC50 [2, 5] was 369 nM and the IC50 [3, 6] was 10 nM.
`Cc1cc2[nH]ncc2c2c1CCCOC(=O)O[C@@H]1CCCCN(C1)c1nc(OC[C@@H]3C[C@@H](F)CN3C)nc3c(F)c-2ncc13` [Example 92, (26R)-32-fluoro-4-(((2S,4R)-4-fluoro-1-methyl-2-pyrrolidinyl)methoxy)-18-methyl-23,25-dioxa-1,3,5,9,14,15-hexaazahexacyclo[24.4.1.1~6,10~.0~2,7~.0~11,19~.0~12,16~]dotriaconta-2,4,6,8,10(32),11,13,16,18-nonaen-24-one] showed an IC50 [1, 4] of 13 nM, an IC50 [2, 5] of 317 nM and an IC50 [3, 6] of 11 nM.
`Fc1c2ncc3c(nc(OC[C@@]45CCCN4C[C@H](F)C5)nc13)N1CC(COCCCCc3c(Cl)cc4[nH]ncc4c3-2)CC(F)(F)C1` (some centres unmarked) [Example 229] gave an IC50 [1, 4] of 27 nM, an IC50 [2, 5] of 342 nM and an IC50 [3, 6] of 12 nM.
With `O=C1CCCc2c(F)ccc3cccc(c23)-c2ncc3c(nc(OC[C@@]45CCCN4C[C@H](F)C5)nc3c2F)N2CCCC[C@H](C2)N1` [Example 69, (16R)-23,32-difluoro-8-(((2R,7aS)-2-fluorotetrahydro-1H-pyrrolo[1,2-a]pyrrol-7a(5H)-yl)methoxy)-3,7,9,11,17-pentaazahexacyclo[20.7.1.1~2,6~.1~11,16~.0~5,10~.0~26,30~]dotriaconta-1(29),2(32),3,5,7,9,22,24,26(30),27-decaen-18-one] the IC50 [1, 4] was 30 nM, the IC50 [2, 5] was 1140 nM and the IC50 [3, 6] was 20 nM.
Compound `O[C@@H]1CCOCCc2c(Cl)cc3[nH]ncc3c2-c2ncc3c(nc(OC[C@@]45CCCN4C[C@H](F)C5)nc3c2F)N2CCC[C@@H]1C2` [Example 404, (16R,17R)-9-Chloro-30-fluoro-24-(((2R,7aS)-2-fluorotetrahydro-1H-pyrrolo[1,2-a]pyrrol-7a(5H)-yl)methoxy)-13-oxa-5,6,21,23,25,29-hexaazahexacyclo[24.3.1.1~17,21~.0~2,10~.0~3,7~.0~22,27~]hentriaconta-1(30),2,4,7,9,22,24,26,28-nonaen-16-ol] has an IC50 [2, 8] of 236 nM and an IC50 (AsPC-1 cells; [9]) of 1570 nM.
